SMILES strings stand for the structures.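 Tested at 5 concentrations; 48 h exposure; 96-well plates; endpoints linearly interpolated, else capped at highest concentration. Abbreviation: GI50, concentration required for 50% inhibition of growth.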 Activity calls are given as the source filed them. Cut-off read from the data, not from the text of the source: active = GI50 up to about 1.1 µM and inactive = higher.

Data on eleven compounds can be found in ChEMBL document CHEMBL1201862, “PubChem BioAssay data set” (2004).

Among the test systems are SF-295; SW-620; MDA-MB-435; UO-31; DU-145; OVCAR-4; HCT-116; OVCAR-3; UACC-257; U-251; Malme-3M; HOP-92; A498; HCT-15; Hs-578T; MCF7; SK-MEL-2; RPMI-8226; K562; NCI-H522.
Holding throughout (experiment): NCI tumour cell line growth inhibition, 48 h

Regarding `Cc1nc(O)nc(NNCc2ccc(Cl)cc2)c1C(=O)Nc1ccc(Cl)cc1`, the GI50 with SF-295 was > 100 µM (inactive); in the test with SW-620 it was > 100 µM (inactive); in the test on MDA-MB-435, 88.1 µM (inactive); in the test on UO-31 it was > 100 µM (inactive); in the test on DU-145, 29.4 µM (inactive); in the test on OVCAR-4, > 100 µM (inactive). The GI50 in the test on HCT-116, with OVCAR-3, with UACC-257, in the test with U-251, in the test with Malme-3M and in the test with HOP-92 was > 100 µM (inactive) throughout. For the same compound, the GI50 is > 100 µM (inactive) in the test on A498; 50.1 µM with HCT-15; > 100 µM (inactive) in the test on Hs-578T; > 100 µM (inactive) in the test on MCF7; > 100 µM (inactive) with SK-MEL-2; > 100 µM (inactive) in the test with RPMI-8226.

As to `COC(=O)C1=C(O)C(C(=O)OC)[C@]2(O)[C@H](C(=O)OC)[C@H]1C[C@@H](c1ccc(Cl)cc1)[C@H]2C(=O)OC` (stereo not given in full), the GI50 in the test on SF-295 was 4.28 µM (inactive); with SW-620, 7.29 µM (inactive); in the test with MDA-MB-435, 3.67 µM (inactive); in the test with K562, 4.27 µM (inactive); in the test with UO-31, 8.97 µM (inactive); in the test with DU-145, 7.11 µM (inactive). Further, the GI50 in the test with OVCAR-4 is 11.1 µM (inactive); with HCT-116 it was 5.28 µM (inactive); in the test on OVCAR-3, 2.94 µM (inactive); in the test on UACC-257, 7.6 µM (inactive); in the test with U-251, 6.05 µM (inactive); in the test with Malme-3M it was 6.56 µM (inactive). The GI50 in the test with HOP-92 was 19.3 µM (inactive); with A498, 11.7 µM (inactive); in the test with HCT-15, 4.59 µM; with Hs-578T, 3.89 µM (inactive); in the test with MCF7, 4.07 µM (inactive); in the test on SK-MEL-2, 1.79 µM (inactive). In addition, the GI50 in the test on RPMI-8226 is 4.06 µM (inactive).

Consider `Cc1c(C(=O)O)n2c(C)nnc2c2ccccc12`, for which the GI50 in the test with SF-295 is > 100 µM (inactive); with SW-620, > 100 µM (inactive); with MDA-MB-435, > 100 µM (inactive); with K562 it was > 100 µM (inactive); in the test with UO-31 it was 61.5 µM (inactive); in the test on DU-145, > 100 µM (inactive). Further, the GI50 in the test with OVCAR-4, in the test with HCT-116, in the test with OVCAR-3, in the test with UACC-257, with U-251 and with HOP-92 was > 100 µM (inactive) each time. Also, the GI50 is > 100 µM (inactive) with A498; > 100 µM (inactive) with NCI-H522; more than 100 µM in the test on HCT-15; > 100 µM (inactive) with Hs-578T; > 100 µM (inactive) in the test with MCF7; > 100 µM (inactive) in the test on SK-MEL-2.

Take `Cc1nc(O)nc(N(CCO)/N=C/c2ccc(Cl)cc2)c1C(=O)Nc1ccc(Cl)cc1`: the GI50 in the test on SF-295, with SW-620, in the test with MDA-MB-435, in the test on K562, with UO-31 and in the test on DU-145 was > 100 µM (inactive) in each case. Further, the GI50 in the test with OVCAR-4 is > 100 µM (inactive); in the test with HCT-116, 57.8 µM (inactive); in the test on OVCAR-3 it was > 100 µM (inactive); with UACC-257, > 100 µM (inactive); with U-251 it was 21.3 µM (inactive); with Malme-3M, 26.1 µM (inactive). Besides, the GI50 in the test with HOP-92 is > 100 µM (inactive); in the test on A498, > 100 µM (inactive); with NCI-H522, > 100 µM (inactive); in the test on HCT-15, more than 100 µM; in the test on Hs-578T it was 32.5 µM (inactive); in the test with MCF7, > 100 µM (inactive). Moreover, in the test on SK-MEL-2, the GI50 is 34.4 µM (inactive).

Take `COC(=O)C(Cc1c[nH]c2ccccc12)NP(=O)(O)OCC1OC(n2cc(I)c(=O)[nH]c2=O)CC1O` (stereo not given): the GI50 with SF-295, in the test on SW-620, in the test with MDA-MB-435, with K562, in the test on UO-31 and with DU-145 was > 100 µM (inactive) in each case. The GI50 with OVCAR-4, in the test with HCT-116, with OVCAR-3, in the test on UACC-257, in the test on U-251 and in the test with Malme-3M was > 100 µM (inactive) in each case. Further, the GI50 in the test on HOP-92 was > 100 µM (inactive); in the test on A498, > 100 µM (inactive); with NCI-H522 it was > 100 µM (inactive); in the test on HCT-15, more than 100 µM; in the test on Hs-578T it was > 100 µM (inactive); in the test with MCF7 it was > 100 µM (inactive). Besides, the GI50 in the test with RPMI-8226 is > 100 µM (inactive).

For the compound `O=C(NS(=O)(=O)Nc1ccc(Cl)cc1)OCc1ccc(Cl)cc1Cl`, the GI50 with SF-295 was 17.2 µM (inactive); with SW-620, 33.3 µM (inactive); in the test on MDA-MB-435, 22.1 µM (inactive); in the test on K562 it was 28.4 µM (inactive); in the test on UO-31, 17.5 µM (inactive); with DU-145, 21.3 µM (inactive). Further, the GI50 is 24 µM (inactive) in the test with OVCAR-4; 20 µM (inactive) with HCT-116; 17.7 µM (inactive) in the test on OVCAR-3; 46.6 µM (inactive) with UACC-257; 28.6 µM (inactive) in the test with U-251; 19.1 µM (inactive) in the test with Malme-3M. The GI50 is 24.7 µM (inactive) in the test with HOP-92; 3.94 µM (inactive) in the test on A498; 34.3 µM with HCT-15; 14.2 µM (inactive) with Hs-578T; 14.8 µM (inactive) with MCF7; 28.8 µM (inactive) in the test with SK-MEL-2. Besides, in the test on RPMI-8226, the GI50 is 54.5 µM (inactive).

As to `CCN(CC)CCNc1ccc([N+](=O)[O-])c2nc3ccccc3c(N)c12`, the GI50 in the test with SF-295 was 0.498 µM (active); with SW-620 it was 0.208 µM (active); in the test with MDA-MB-435, 0.481 µM (active); with K562, 0.316 µM (active); in the test on UO-31, 0.597 µM (active); in the test with DU-145, 2.94 µM (inactive). The GI50 in the test on OVCAR-4 is 0.422 µM (active); with HCT-116 it was 0.127 µM (active); in the test on OVCAR-3, 0.701 µM (active); in the test on UACC-257 it was 0.931 µM (active); in the test on U-251, 0.682 µM (active); in the test with HOP-92, 0.755 µM (active). In addition, the GI50 with A498 is 1.22 µM (inactive); with HCT-15, 0.41 µM; with Hs-578T, 0.175 µM (active); in the test on MCF7 it was 0.364 µM (active); in the test with SK-MEL-2, 0.214 µM (active); in the test with RPMI-8226, 0.311 µM (active).

Consider `Cn1c(-c2ccccc2)cc(-c2ccc3c(c2)OCO3)c1-c1ccsc1`, for which the GI50 in the test with SF-295, with SW-620, with MDA-MB-435, with K562, in the test on UO-31 and with DU-145 was > 100 µM (inactive) each time. Besides, the GI50 with OVCAR-4, with HCT-116, in the test on OVCAR-3, with UACC-257, in the test on U-251 and in the test with HOP-92 was > 100 µM (inactive) in each case. For the same compound, the GI50 with A498 was > 100 µM (inactive); in the test on HCT-15, more than 100 µM; in the test on Hs-578T, > 100 µM (inactive); in the test with MCF7, > 100 µM (inactive); with SK-MEL-2, > 100 µM (inactive); in the test with RPMI-8226, > 100 µM (inactive).

`CCCCCCOc1ccc(C(=O)NOCc2ccccc2)cc1`: the GI50 in the test on SF-295 is > 100 µM (inactive); with SW-620, > 100 µM (inactive); in the test on MDA-MB-435 it was 41.3 µM (inactive); with K562, 35.6 µM (inactive); with UO-31 it was > 100 µM (inactive); in the test on DU-145, > 100 µM (inactive). The GI50 with OVCAR-4, in the test with HCT-116, in the test on OVCAR-3, with UACC-257, with U-251 and in the test on HOP-92 was > 100 µM (inactive) throughout. In addition, the GI50 in the test with A498 is > 100 µM (inactive); with NCI-H522, > 100 µM (inactive); in the test with HCT-15 it was 63.8 µM; in the test on Hs-578T it was > 100 µM (inactive); in the test with MCF7, > 100 µM (inactive); in the test with SK-MEL-2 it was > 100 µM (inactive). Also, the GI50 with RPMI-8226 was 42.2 µM (inactive).

As to `Nc1nc(O)c([I+]c2ccccc2)c(=O)[nH]1`, the GI50 is > 100 µM (inactive) in the test on SF-295; > 100 µM (inactive) with SW-620; > 100 µM (inactive) in the test with MDA-MB-435; > 100 µM (inactive) in the test on K562; 85.1 µM (inactive) with UO-31; > 100 µM (inactive) in the test on DU-145. Also, the GI50 in the test on OVCAR-4, with HCT-116, with OVCAR-3, in the test on UACC-257, with U-251 and in the test on Malme-3M was > 100 µM (inactive) throughout. Besides, the GI50 in the test on HOP-92 was > 100 µM (inactive); in the test with A498, > 100 µM (inactive); in the test with NCI-H522 it was > 100 µM (inactive); in the test on HCT-15, more than 100 µM; with Hs-578T, > 100 µM (inactive); in the test on MCF7, > 100 µM (inactive). For the same compound, the GI50 with RPMI-8226 is > 100 µM (inactive).

On to `CCOC(=O)c1csc(-c2cn(C)c3c2C(=O)C(OC)=CC3=O)n1`, for which the GI50 in the test on SF-295 is 25 µM (inactive); in the test on SW-620 it was 55.2 µM (inactive); with MDA-MB-435 it was 3.27 µM (inactive); in the test with K562, 21.6 µM (inactive); with UO-31 it was 44.4 µM (inactive); in the test with DU-145, 6.05 µM (inactive). Moreover, the GI50 in the test on OVCAR-4 is 42.8 µM (inactive); in the test with HCT-116, 18.3 µM (inactive); with OVCAR-3 it was 5.82 µM (inactive); in the test on UACC-257, 21.6 µM (inactive); in the test on U-251, 15.4 µM (inactive); in the test on HOP-92, 40.5 µM (inactive). The GI50 was 24.3 µM (inactive) with A498; 36.6 µM (inactive) with NCI-H522; 9.75 µM with HCT-15; 21.2 µM (inactive) with Hs-578T; 7.6 µM (inactive) in the test with MCF7; 21.7 µM (inactive) in the test on SK-MEL-2. The GI50 in the test on RPMI-8226 was 9.53 µM (inactive).
